Results taken from the Deep4Chem optical property database.
Values belong to the compound of their own block, whether it stands above or below them.

Experiment: solvent given as SMILES

absorption maximum (in ClCCl): 571 nm
SMILES: CCCCN1C(=O)C2=C(c3ccc(Br)cc3)[N-]C(=O)C2=C1c1ccc(Br)cc1

absorption maximum (in ClC(Cl)Cl): 384 nm
SMILES: c1ccc(-c2nc(-c3ccccc3)c(N(c3ccccc3)c3ccccc3)[se]2)cc1

absorption maximum (in O): 419 nm
SMILES: Cc1ccc2c(c1)c(=O)c1ccccc1n2CCCCCC(=O)O

absorption maximum (in CN(C)C=O): 310 nm
SMILES: Cc1nc2cccc(-c3nc4ccccc4o3)c2c(=O)[nH]1

absorption maximum (in CC#N): 361 nm | absorption maximum (in CCCCOCCCC): 361 nm | absorption maximum (in CO): 357 nm
SMILES: Nc1ccc2ccc3cccc4ccc1c2c34

absorption maximum (in C1CCOC1): 333 nm
SMILES: c1ccc(-c2nc(-c3ccc(-c4cncc5ccccc45)cc3)[nH]c2-c2ccccc2)cc1

absorption maximum (in CC#N): 460 nm
SMILES: C[C@]12SC(=O)C=C1c1nc(-c3ccccc3)[nH]c1C1=CC(=O)S[C@@]12C

absorption maximum (in C1CCCCC1): 281 nm
SMILES: CCCCCCCCOc1ccc(C2=C(c3ccc(OCCCCCCCC)cc3)C(C)(C)c3ccccc32)cc1

absorption maximum (in ClCCl): 388 nm
SMILES: FC(F)(F)c1ccc(B2c3ccccc3Nc3ccccc32)c(C(F)(F)F)c1

absorption maximum (in ClCCl): 327 nm
SMILES: COC(=O)C1=C(C(=O)OC)C2(c3cc(Cl)ccc3-c3c(Cl)cc(Cl)cc32)C2(/C=C/c3ccccc3)c3cc(OC)c(OC)cc3CCN12 (centres undefined)

absorption maximum (in C1CCOC1): 312 nm
SMILES: O=C(c1ccc(N2c3ccccc3Oc3ccccc32)cc1)c1ccc2sc3ccccc3c2c1

absorption maximum (in ClCCl): 357 nm
SMILES: COc1ccc(-c2cc3c(ccc4sc5ccc6sccc6c5c43)s2)cc1

absorption maximum (in CCO): 556 nm | absorption maximum (in ClCCl): 554 nm
SMILES: Cc1ccccc1-c1c2ccc(=[N+]3CCOCC3)cc-2oc2cc(N3CCOCC3)ccc12

absorption maximum (in ClC(Cl)Cl): 410 nm
SMILES: O=C1CC(c2ccccc2)c2c(c3ccccc3c3nc4ccccc4nc23)O1 (centres undefined)

absorption maximum (in CS(C)=O): 361 nm
SMILES: COc1ccc(C2C3=C(CCCC3=O)Nc3c2c(=O)oc2ccccc32)cc1 (centres undefined)

absorption maximum (in CO): 784 nm
SMILES: CC1(C)C(/C=C/C2=C(Cl)C(=C/C=C3/N(Cc4ccccc4)c4ccccc4C3(C)C)/CCC2)=[N+](Cc2ccccc2)c2ccccc21

absorption maximum (in C1CCCCC1): 407 nm | absorption maximum (in CC#N): 420 nm | absorption maximum (in CCO): 431 nm | absorption maximum (in c1ccccc1): 416 nm
SMILES: Nc1cccc2c1C(=O)c1ccccc1-2

absorption maximum (in CCO): 383 nm
SMILES: CC1(C)CC(=O)c2ccccc2N1

absorption maximum (in C1CCCCC1): 382.68 nm
SMILES: C[Si](C)(C)[Si](C)(C)c1ccc2cc3ccccc3cc2c1

absorption maximum (in ClC(Cl)Cl): 425 nm
SMILES: Fc1cccc(C2=Cc3ccc4ccccc4[n+]3[B-](F)(F)O2)c1

absorption maximum (in C1CCCCC1): 389 nm
SMILES: COc1ccc2c3c(c4ccc(OC)cc4c2c1)C(C)(C)c1cc(-c2ccccc2)ccc1-3

absorption maximum (in C1CCOC1): 391 nm
SMILES: F[Si-](F)(c1ccccc1)(c1c2ccccc2cc2ccccc12)c1c2ccccc2cc2ccccc12

absorption maximum (in CCO): 612 nm | absorption maximum (in ClC(Cl)Cl): 623 nm | absorption maximum (in O): 612 nm
SMILES: CC[N+](CC)=c1ccc2c(-c3ccccc3C(=O)O)c3c(=O)oc4c5c6c(cc4c3oc-2c1)CCCN6CCC5

absorption maximum (in ClC(Cl)Cl): 422 nm
SMILES: CCCN1c2ccccc2Sc2cc(/C=C\c3cc(=O)oc4cc(O)ccc34)ccc21

absorption maximum (in ClCCl): 327 nm
SMILES: CCCCCCOc1ccc2c(c1)-c1cc3c(cc1[Si]2(C)C)-c1ccccc1[Si]3(C)C

The remaining lines, values behind:

SMILES: N#Cc1ccc(N(c2ccccc2)c2ccc3ccc4c(N(c5ccccc5)c5ccc(C#N)cc5)ccc5ccc2c3c54)cc1
absorption maximum (in ClCCl): 407 nm

SMILES: CCCC1=Cc2nc1ccc1[nH]c(cc1CCC)c1nc(c(OC(=O)CCCC(=O)OC(C)(C)C)cc3[nH]c2cc3CCC)C(CCC)=C1
absorption maximum (in Cc1ccccc1): 645 nm

SMILES: c1ccc(-c2nnc(-c3cc(-n4c5ccccc5c5ccccc54)c(-n4c5ccccc5c5ccccc54)cc3-c3nnc(-c4ccccc4)o3)o2)cc1
absorption maximum (in ClCCl): 361 nm

SMILES: O=C([O-])c1ccc(C2=c3cc4c5c(c3Oc3c2cc2c6c3CCCN6CCC2)CCC[N+]=5CCC4)c(C(=O)[O-])c1
absorption maximum (in CCO): 573 nm | absorption maximum (in O): 574 nm

SMILES: O=P1(c2ccccc2)C(c2cc(C(F)(F)F)cc(C(F)(F)F)c2)=Cc2c3ccc4cccc5ccc(c6cc(-c7ccccc7)n1c26)c3c45 (centres undefined)
absorption maximum (in C1CCCCC1): 451 nm | absorption maximum (in C1CCOC1): 451 nm | absorption maximum (in C1COCCO1): 448 nm | absorption maximum (in CC#N): 445 nm | absorption maximum (in CC(C)=O): 446 nm | absorption maximum (in CO): 444 nm | absorption maximum (in Cc1ccccc1): 453 nm | absorption maximum (in ClC(Cl)Cl): 452 nm | absorption maximum (in ClCCl): 450 nm

SMILES: CCn1c2ccccc2c2cc(/C=C/c3cc(/C=C/c4ccc5c(c4)c4ccccc4n5CC)[n+](CCCS(=O)(=O)[O-])c(/C=C/c4ccc5c(c4)c4ccccc4n5CC)c3)ccc21
absorption maximum (in C1CCOC1): 464 nm | absorption maximum (in CC#N): 458 nm | absorption maximum (in CC(C)=O): 462 nm | absorption maximum (in Cc1ccccc1): 466 nm

SMILES: CCCC1=Cc2nc1ccc1[nH]c(cc1CCC)c1nc(c(OC(C)=O)cc3[nH]c2cc3CCC)C(CCC)=C1
absorption maximum (in Cc1ccccc1): 645 nm

SMILES: c1ccc2c(P(c3c4ccccc4cc4ccccc34)c3c4ccccc4cc4ccccc34)c3ccccc3cc2c1
absorption maximum (in C1CCOC1): 437 nm

SMILES: COc1cc2c(cc1-c1ccc([N+](=O)[O-])cc1)Cc1c3c(c4c(c1-2)-c1cc(OC)c(-c2ccc([N+](=O)[O-])cc2)cc1C4)C(=O)N(CCC(C)C)C3=O
absorption maximum (in C1CCOC1): 409 nm

SMILES: CC(C)[Si]1(C(C)C)c2cc(N(C)C)ccc2-c2ccc(C(F)(F)F)cc21
absorption maximum (in C1CCCCC1): 331 nm | absorption maximum (in CC#N): 337 nm | absorption maximum (in CCO): 335 nm | absorption maximum (in CCOCC): 334 nm | absorption maximum (in CS(C)=O): 344 nm | absorption maximum (in ClCCl): 338 nm | absorption maximum (in c1ccccc1): 338 nm

SMILES: Cc1cc(N2c3ccccc3C3(c4ccccc4-c4ccccc43)c3ccccc32)c(C)cc1-c1nc(-c2ccccc2)nc(-c2ccccc2)n1
absorption maximum (in Cc1ccccc1): 382.89 nm

SMILES: CCCC1=Cc2nc1ccc1[nH]c(cc1CCC)c1nc(ccc3[nH]c2cc3CCC)C(CCC)=C1
absorption maximum (in Cc1ccccc1): 667 nm

SMILES: COc1cc(Br)cc2cc(-c3cc4cc(Br)cc(OC)c4oc3=O)oc12
absorption maximum (in CC#N): 353 nm | absorption maximum (in CCOC(C)=O): 355 nm | absorption maximum (in CS(C)=O): 359 nm | absorption maximum (in Cc1ccccc1): 360 nm | absorption maximum (in O): 359 nm

SMILES: Cc1ccc(-c2cc(C)[o+]c(C)c2)cc1
absorption maximum (in CC#N): 347 nm | absorption maximum (in ClCCl): 365 nm

SMILES: CC(C)(C)c1ccc(-c2cc(-c3ccc(-c4cc(-c5ccc(C(C)(C)C)cc5)c(C(=O)NCc5ccccc5)s4)s3)sc2C(=O)NCc2ccccc2)cc1
absorption maximum (in ClCCl): 394 nm

SMILES: COc1ccc(-c2c3nc(cc4ccc([nH]4)c(-c4ccc(OC)c(OCC(=O)O)c4)c4nc(cc5ccc2[nH]5)CC4)C=C3)cc1OCC(=O)O
absorption maximum (in CS(C)=O): 644 nm

SMILES: Cc1cc(C)c(N(c2ccccc2)c2ccc(S(=O)(=O)c3ccc(S(=O)(=O)c4ccc(N(c5ccccc5)c5c(C)cc(C)cc5C)cc4)cc3)cc2)c(C)c1
absorption maximum (in Cc1ccccc1): 351 nm

SMILES: CCCC1(CCC)c2cc(-c3ccc(C(C)(C)C)cc3)ccc2-c2ccc(-c3ccc4c(c3)C(CCC)(CCC)c3cc(-c5ccc6c(c5)C(CCC)(CCC)c5cc(-c7ccc8c(c7)C(CCC)(CCC)c7cc(-c9ccc(C(C)(C)C)cc9)ccc7-8)ccc5-6)ccc3-4)cc21
absorption maximum (in C1CCCCC1): 366 nm

SMILES: c1ccc(-n2nc(-c3ccc(N4c5ccccc5Sc5ccccc54)cc3)nc2-c2ccccn2)cc1
absorption maximum (in ClCCl): 329 nm

SMILES: c1ccc(-c2nc(-c3ccccc3)nc(-c3ccc(-n4c5ccccc5c5c4c4ccccc4n5-c4ccccc4)cc3)n2)cc1
absorption maximum (in Cc1ccccc1): 398 nm

SMILES: C(=C\c1ncnc2ccccc12)/c1ccc(-c2ccc(N(c3ccccc3)c3ccccc3)cc2)cc1
absorption maximum (in ClCCl): 402 nm

SMILES: COc1ccc(N(c2ccc(C=C(c3ccccc3)c3ccccc3)cc2)c2ccc(C=C(c3ccccc3)c3ccccc3)cc2)cc1
absorption maximum (in Cc1ccccc1): 397 nm

SMILES: COC(=O)C(N)Cc1ccc(O[Si]2(Oc3ccc(CC(N)C(=O)OC)cc3)n3c4c5ccccc5c3/N=C3N=C(/N=c5/c6ccccc6/c(n52)=N/C2=NC(=N\4)/c4ccccc42)c2ccccc2\3)cc1 (centres undefined)
absorption maximum (in CN(C)C=O): 680 nm

SMILES: Cc1cc(-n2c3ccccc3c3ccccc32)ccc1-c1ccc(S(=O)(=O)c2ccccc2)cc1C
absorption maximum (in Cc1ccccc1): 340 nm

SMILES: COCCOCCOCN1C(=O)c2ccc3c(-c4ccccc4)c4c5ccc6c7c(ccc(c(-c8ccccc8)c4c4ccc(c2c34)C1=O)c75)C(=O)N(COCCOCCOC)C6=O
absorption maximum (in ClCCl): 630 nm

SMILES: COc1ccc(C2=C3C(C)=CC(C=Cc4ccc(C(=O)OC5C[C@H]6CCC5(C)C6(C)C)cc4)=[N+]3[B-](F)(F)n3c(C)cc(C)c32)cc1 (some centres undefined)
absorption maximum (in Cc1ccccc1): 568 nm

SMILES: CN(C)CCCN1c2ccccc2Sc2ccc(Cl)cc21
absorption maximum (in CC#N): 312 nm | absorption maximum (in CO): 311 nm | absorption maximum (in O): 307 nm

SMILES: CC(=C(C#Cc1ccccc1)C#Cc1ccccc1)c1ccc(C(C)=C(C#Cc2ccccc2)C#Cc2ccccc2)cc1
absorption maximum (in ClC(Cl)Cl): 360 nm

SMILES: COc1ccc(-c2nnc(-c3cc(-c4nnc(-c5ccc(OC)cc5)o4)c(-n4c5ccccc5c5ccccc54)cc3-n3c4ccccc4c4ccccc43)o2)cc1
absorption maximum (in Cc1ccccc1): 371 nm

SMILES: COc1ccccc1C1=C2C(C)=CC(C)=[N+]2[B-](F)(F)n2c(C)cc(C)c21
absorption maximum (in C1CCOC1): 503 nm | absorption maximum (in CC#N): 499 nm | absorption maximum (in CC(=O)C(C)(C)C): 502 nm | absorption maximum (in CC(C)=O): 501 nm | absorption maximum (in CCCCCC): 504 nm | absorption maximum (in CCOC(C)=O): 502 nm | absorption maximum (in CO): 500 nm

SMILES: c1cc2c([nH]c3c4[nH]c5sccc5c4c4nsnc4c23)s1
absorption maximum (in C1CCOC1): 420 nm | absorption maximum (in CCOC(C)=O): 414 nm | absorption maximum (in CN(C)C=O): 423 nm | absorption maximum (in Cc1ccccc1): 411 nm | absorption maximum (in ClCCl): 415 nm

SMILES: O=C(/C=C(\O)c1ccc(N2c3ccccc3Oc3ccccc32)cc1)c1ccc(N2c3ccccc3Oc3ccccc32)cc1
absorption maximum (in Cc1ccccc1): 441 nm

SMILES: Cc1ccc(-c2ccc(-c3ccc(-c4ccc(-c5ccc(C)cc5)cc4)c(/C(=C(/c4ccccc4)c4cc(-c5ccc(-c6ccc(C)cc6)cc5)ccc4-c4ccc(-c5ccc(C)cc5)cc4)c4ccccc4)c3)cc2)cc1
absorption maximum (in C1CCOC1): 308 nm

SMILES: CC(C)[Si](C#Cc1ccc(C#C[Si](C(C)C)(C(C)C)C(C)C)c2nc3cc4c(cc3nc12)[C@H]1c2ccccc2[C@@H]4c2ccccc21)(C(C)C)C(C)C
absorption maximum (in CCCCCC): 435 nm | absorption maximum (in ClCCl): 435 nm

SMILES: CC1=CC(C)=[N+]2C1=C(C1=C3C(C)=CC(C)=[N+]3[B-](F)(F)n3c(C)cc(C)c31)c1c(C)cc(C)n1[B-]2(F)F
absorption maximum (in ClC(Cl)Cl): 515 nm
